# Laboratory results taken from patent US20160348148A1, “MICROWELL PLATE FOR HIGH-THROUGHPUT DETECTION AND APPLICATION THEREOF” (SHANGHAI JIAOTONG UNIVERSITY, priority 2013, published 2016).
# Read-outs that look alike come from different tables or passages of the source.
# Key:
# hCBS = biological target: T1, hCBS (Homo sapiens, UniProt P35520); experiment: High-throughput screening of hCBS enzymatic reaction inhibitors (H2S detection with DTNB in microwell plate); format: biochemical
# T1 construct: made in house
# T1 sequence (P35520 1-551): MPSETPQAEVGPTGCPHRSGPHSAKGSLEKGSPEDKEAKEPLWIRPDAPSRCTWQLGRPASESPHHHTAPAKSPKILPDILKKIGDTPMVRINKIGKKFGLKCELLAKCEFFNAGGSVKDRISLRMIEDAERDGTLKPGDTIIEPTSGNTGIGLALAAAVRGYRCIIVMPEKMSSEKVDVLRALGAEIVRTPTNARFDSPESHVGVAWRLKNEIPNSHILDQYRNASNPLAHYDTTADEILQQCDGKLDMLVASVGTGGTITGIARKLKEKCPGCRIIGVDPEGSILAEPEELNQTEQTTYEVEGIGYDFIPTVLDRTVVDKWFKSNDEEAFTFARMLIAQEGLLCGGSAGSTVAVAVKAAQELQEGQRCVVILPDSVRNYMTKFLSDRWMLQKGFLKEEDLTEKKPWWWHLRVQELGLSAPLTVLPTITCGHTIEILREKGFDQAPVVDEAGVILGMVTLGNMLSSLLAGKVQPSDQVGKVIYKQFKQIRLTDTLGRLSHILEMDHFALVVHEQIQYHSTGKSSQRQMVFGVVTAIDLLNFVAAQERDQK
# hDDC = biological target: T2, hDDC (Homo sapiens, UniProt P20711); experiment: IC50 to hDDC (specificity test, coupled enzyme assay); format: biochemical
# T2 construct: made in house
# T2 sequence (P20711 1-480): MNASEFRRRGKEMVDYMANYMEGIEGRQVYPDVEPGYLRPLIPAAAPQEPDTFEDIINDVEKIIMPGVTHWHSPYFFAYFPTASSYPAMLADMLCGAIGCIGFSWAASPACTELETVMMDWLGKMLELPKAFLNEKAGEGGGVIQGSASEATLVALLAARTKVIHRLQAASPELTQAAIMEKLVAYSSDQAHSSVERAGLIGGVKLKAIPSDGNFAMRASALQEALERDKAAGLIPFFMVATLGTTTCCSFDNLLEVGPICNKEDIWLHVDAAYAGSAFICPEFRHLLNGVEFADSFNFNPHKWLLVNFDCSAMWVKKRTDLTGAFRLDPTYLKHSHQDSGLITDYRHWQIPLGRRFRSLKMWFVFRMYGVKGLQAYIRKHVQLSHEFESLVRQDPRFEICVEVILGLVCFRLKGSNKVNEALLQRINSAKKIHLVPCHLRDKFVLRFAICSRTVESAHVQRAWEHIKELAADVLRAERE
# Procedure: By referring to the experiment method in Assay Drug Dev Technol. […] Smithson, IC50 of the 9 compounds to hDDC was determined.
# [1] = 100 nM hCBS, 4 mM L-Cys, 4 mM D,L-HCys, pH 8.6, 60 min at 37° C., read-out: IC50 to hCBS
Structure (SMILES),IC50 (hCBS; [1]) [µM],IC50 (hDDC; read-out: IC50 to hDDC) [µM],IC50 (hCBS) [µM],IC50 (hDDC) [µM]
CCCCCCCCCCCCCCCC[N+](C)(C)CCN(Cc1ccc(OC)cc1)c1ncccn1 [Compound 2],8,16,,
"C/C1=C2/[N]([Co][OH])[C@H]([C@H](CC(N)=O)[C@@]2(C)CCC(=O)NC[C@@H](C)OP(=O)(O)OC2[C@@H](CO)O[C@H](n3cnc4cc(C)c(C)cc43)[C@H]2O)[C@]2(C)N=C(/C(C)=C3N=C(/C=C4N=C1[C@@H](CCC(N)=O)C\4(C)C)[C@@H](CCC(N)=O)[C@]\3(C)CC(N)=O)[C@@H](CCC(N)=O)[C@]2(C)CC(N)=O (stereo partly shown) [Compound 8, Hydroxocobalamin, reference compound]",,,35,150
CC1CCN(C2=C(Cl)C(=O)c3ccccc3C2=O)CC1 [Compound 5],20,300,,
Cn1ncnc2c(=O)n(C)c(=O)nc1-2 [Compound 9],12,,,

# More lines, main results first:
IC50 (hCBS; [1]) [µM],IC50 (hDDC; read-out: IC50 to hDDC) [µM],Structure (SMILES),IC50 (hCBS) [µM],IC50 (hDDC) [µM]
40,60,N=C(N)NCCCS(=O)(=O)Nc1ccc(Nc2c3ccccc3nc3cc([N+](=O)[O-])ccc23)cc1 [Compound 7],,
15,25,CCN(CC)c1ccc(C(=C2C=CC(=[N+](CC)CC)C=C2)c2ccc(N(CC)CC)cc2)cc1 [Compound 3],,
30,110,COc1ccc2c(NCCCCCCNc3c4ccccc4nc4cc(OC)ccc34)c3ccccc3nc2c1 [Compound 6],,
